Experimental data from US7566712B2, “Biaryl piperazinyl-pyridine analogues” (Neurogen Corporation, priority 2003, dated 2009).

Target: T1, human capsaicin receptor (Homo sapiens, UniProt Q8NER1)
T1 construct: pBK-CMV expression construct encoding the full length human capsaicin receptor; expressed in transfected cells
Test: Calcium mobilization assay, determination of antagonist activity (Example 6)
Format: cell-based
Conditions: Table II; determined as described in Example 6 (antagonist activity); "*" = 1 micromolar or less
How it was run: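 HEK293 clonal lines stably expressing full-length human capsaicin receptor, loaded with Fluo-3 AM in KRH buffer pH 7.4, 1–2 h at 37 °C. Compounds (1–5 μM final) preincubated 0.5–6 h at room temperature, then capsaicin at its EC50 added. FLIPR/Fluoroskan calcium signal; IC50 as 50% decrease of capsaicin response.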

T1 sequence (Q8NER1 whole entry): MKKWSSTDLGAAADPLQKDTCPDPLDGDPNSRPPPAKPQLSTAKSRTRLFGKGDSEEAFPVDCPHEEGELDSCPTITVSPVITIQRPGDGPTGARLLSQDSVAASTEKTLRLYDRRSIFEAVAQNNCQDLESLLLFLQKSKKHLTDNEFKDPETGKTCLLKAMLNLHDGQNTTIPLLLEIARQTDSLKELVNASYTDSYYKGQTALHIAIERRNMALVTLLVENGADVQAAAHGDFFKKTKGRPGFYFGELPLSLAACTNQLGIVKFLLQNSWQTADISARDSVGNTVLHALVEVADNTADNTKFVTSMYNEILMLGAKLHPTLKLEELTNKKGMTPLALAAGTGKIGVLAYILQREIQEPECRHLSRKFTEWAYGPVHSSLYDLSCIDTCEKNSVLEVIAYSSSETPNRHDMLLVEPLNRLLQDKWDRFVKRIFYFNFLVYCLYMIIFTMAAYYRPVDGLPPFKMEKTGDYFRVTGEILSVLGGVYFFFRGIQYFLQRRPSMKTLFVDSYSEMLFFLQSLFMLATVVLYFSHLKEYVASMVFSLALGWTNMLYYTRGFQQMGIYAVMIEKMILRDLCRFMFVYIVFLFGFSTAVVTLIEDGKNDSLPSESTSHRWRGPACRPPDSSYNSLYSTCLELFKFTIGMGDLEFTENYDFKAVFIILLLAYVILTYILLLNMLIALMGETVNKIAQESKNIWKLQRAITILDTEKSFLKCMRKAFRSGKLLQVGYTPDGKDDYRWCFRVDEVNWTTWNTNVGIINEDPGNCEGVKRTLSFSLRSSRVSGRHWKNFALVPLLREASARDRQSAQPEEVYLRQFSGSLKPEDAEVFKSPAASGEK

Which IC50 does the source give for `CCCN1C[C@H]2C[C@@H]1CN2c1nc(-c2ccc(F)c(Cl)c2)cc(N2CCN(c3ncccc3C(F)(F)F)CC2)n1` [Example 777, (1R,4R)-2-(4-(3-chloro-4-fluorophenyl)-6-{4-[3-(trifluoromethyl)pyridin-2-yl]piperazin-1-yl}pyrimidin-2-yl)-5-propyl-2,5-diazabicyclo[2.2.1]heptane] here?
Its IC50 is no more than 1 µM.

Which IC50 does the source give for `CC1(O)CN(c2nc(-c3ccc(F)c(Cl)c3)cc(N3CCN(c4ncccc4C(F)(F)F)CC3)n2)C1` [Example 778, 1-(4-(3-chloro-4-fluorophenyl)-6-{4-[3-(trifluoromethyl)pyridin-2-yl]piperazin-1-yl}pyrimidin-2-yl)-3-methylazetidin-3-oI] here?
Its IC50 is no more than 1 µM.

For `CCCN1CCN(c2nc(-c3ccc(F)c(Cl)c3)cc(N3CCN(c4ncccc4Cl)C[C@H]3C)n2)CC1` [Example 779, 4-(3-chloro-4-fluorophenyl)-6-[(2R)-4-(3-chloropyridin-2-yl)-2-methylpiperazin-1-yl]-2-(4-propylpiperazin-1-yl)pyrimidine], which IC50 is on record?
Its IC50 is no more than 1 µM.

How did the IC50 turn out when `CC1CCN1c1nc(-c2ccc(F)c(Cl)c2)cc(N2CCN(c3ncccc3Cl)C[C@H]2C)n1` (stereo partly drawn) [Example 780, 4-(3-ohloro-4-fluorophenyi)-6-[(2R)-4-(3-chloropyridin-2-yl)-2-methylpiperazin-1-yl]-2-(2-methylazetidin-1-yl)pyrimidine] was run?
Its IC50 is no more than 1 µM.

For `CC1CCN1c1nc(-c2ccc(F)c(Cl)c2)cc(N2CCN(c3ncccc3C(F)(F)F)C[C@H]2C)n1` (stereo partly drawn) [Example 781, 4-(3-chloro-4-fluorophenyl)-2-(2-methylazetidin-1-yl)-6-{(2R)-2-methyl-4-[3-(trifluoromethyl)pyridin-2-yl]piperazin-1-yl}pyrimidine], which IC50 is on record?
Its IC50 is no more than 1 µM.

How did the IC50 turn out when `C[C@@H]1CN(c2ncccc2C(F)(F)F)CCN1c1cc(-c2ccc(F)cc2)nc(N2CCCC2)n1` [Example 782, 4-(4-fluorophenyl)-6-{(2R)-2-methyl-4-[3-(trifluoromethyl)pyridin-2-yl]piperazin-1-yl}-2-pyrrolidin-1-ylpyrirnidine] was run?
Its IC50 is no more than 1 µM.

How did the IC50 turn out when `CC1CCCN1c1nc(-c2ccc(F)cc2)cc(N2CCN(c3ncccc3C(F)(F)F)C[C@H]2C)n1` (stereo partly drawn) [Example 783, 4-(4-fluorophenyl)-2-(2-methylpyrrolidin-1-yl)-6-{(2R)-2-methyl-4-[3-(trifluoromethyl)pyridin-2-yl]piperazin-1-yl}pyrimidine] was run?
Its IC50 is no more than 1 µM.

For `C[C@@H]1CN(c2ncccc2C(F)(F)F)CCN1c1cc(-c2ccc(F)cc2)nc(N2CCCCC2)n1` [Example 784, 4-(4-fluorophenyl)-6-{(2R)-2-methyl-4-[3-(trifluoromethyl)pyridin-2-yl]piperazin-1-yl}-2-piperidin-1-ylpyrimidine], which IC50 is on record?
The IC50 was no more than 1 µM.

For `Cc1cc(-c2cc(N3CCN(c4ncccc4Cl)C[C@H]3C)nc(N3CCC3C)n2)ccc1F` (stereo partly drawn) [Example 785, 4-[(2R)-4-(3-chloropyridin-2-yl)-2-methylpiperazin-1-yl]-6-(4-fluoro-3-methylphenyl)-2-(2-methylazetidin-1-yl)pyrimidine], which IC50 is on record?
Its IC50 is no more than 1 µM.

For `Cc1cc(-c2cc(N3CCN(c4ncccc4C(F)(F)F)C[C@H]3C)nc(N3CCC3C)n2)ccc1F` (stereo partly drawn) [Example 786, 4-(4-fluoro-3-methyiphenyl)-2-(2-methylazetidin-1-yl)-6-{(2R)-2-methyl-4-[3-(trifluoromethyl)pyridin-2-yl]piperazin-1-yl}pyrimidine], which IC50 is on record?
Its IC50 is no more than 1 µM.

For `CCCN1CCN(c2nc(-c3ccc(F)c(C)c3)cc(N3CCN(c4ncccc4C(F)(F)F)C[C@H]3C)n2)CC1` [Example 787, 4-(4-fluoro-3-methylphenyl)-6-{(2R)-2-methyl-4-[3-(trifluoromethyl)pyridin-2-yl]piperazin-1-yl}-2-(4-propylpiperazin-1-yl)pyrimidine], which IC50 is on record?
Its IC50 is no more than 1 µM.

For `CCCN1CCN(c2nc(-c3ccc(F)c(F)c3)cc(N3CCN(c4ncccc4Cl)C[C@H]3C)n2)CC1` [Example 788, 4-[(2R)-4-(3-chloropyridin-2-yl)-2-methylpiperazin-1-yl]-6-(3,4-difluorophenyl)-2-(4-propylpiperazin-1-yl)pyrimidine], which IC50 is on record?
The IC50 was no more than 1 µM.
